The source of these data is patent US20230174523A1, “BENZENESULFONAMIDE DERIVATIVES AS TRAP1 MODULATORS AND USES THEREOF” (Amathus Therapeutics, Inc., priority 2020, published 2023).

The assay has as its target T1, TRAP1 enzyme (Homo sapiens, UniProt Q12931).
T1 sequence (Q12931 60-704): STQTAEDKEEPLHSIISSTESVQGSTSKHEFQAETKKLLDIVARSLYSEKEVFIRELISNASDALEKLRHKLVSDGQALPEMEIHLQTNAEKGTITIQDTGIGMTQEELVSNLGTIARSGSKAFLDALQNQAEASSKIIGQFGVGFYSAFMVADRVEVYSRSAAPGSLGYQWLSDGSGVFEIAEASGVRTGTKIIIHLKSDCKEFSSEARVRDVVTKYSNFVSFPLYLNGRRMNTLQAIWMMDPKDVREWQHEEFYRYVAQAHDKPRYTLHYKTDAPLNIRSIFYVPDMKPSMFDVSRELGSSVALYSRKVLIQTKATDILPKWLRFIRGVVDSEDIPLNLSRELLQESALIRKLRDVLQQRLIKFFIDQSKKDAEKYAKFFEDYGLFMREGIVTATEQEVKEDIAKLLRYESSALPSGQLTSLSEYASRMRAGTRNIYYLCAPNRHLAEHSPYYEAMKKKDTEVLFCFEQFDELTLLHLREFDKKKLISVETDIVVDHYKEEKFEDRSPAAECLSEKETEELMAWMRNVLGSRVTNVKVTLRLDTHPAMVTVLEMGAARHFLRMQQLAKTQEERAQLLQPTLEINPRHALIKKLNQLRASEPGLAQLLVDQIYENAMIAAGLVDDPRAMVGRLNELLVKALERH
In words: ADP Glo assay of TRAP1 ATPase activity. It counts as biochemical. The note with it: for EC50: TRAP1 ATPase activation, 150 nM Trap1, 20 μM ATP, geometric mean, read-out: ADP GLO DRC: GeoMean EC50; for Emax: read-out: ADP GLO DRC: Mean Emax. An outline of the steps: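 150 nM TRAP1 preincubated with compound (0.79–100 μM) 30 min at 37° C in Pipes pH 7.5 buffer (0.05 mM MgCl2, 40 mM KCl), then 20 μM ATP added for 60 min at 37° C. ADP quantified by ADP-Glo luminescence against ATP/ADP standard curve. Emax and EC50 from sigmoidal fit.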
On the technique in general: ADP-Glo turns the ADP formed in a reaction into a luminescent signal.

With `COc1ccc(NC(=O)c2cnc(-c3ccsc3)[nH]2)cc1S(=O)(=O)Nc1ccc(Cl)cc1` [Compound 1482], the EC50 was under 10 µM and the Emax lay in the range of 160 to 199%.

In the case of `COc1ccc(NC(=O)c2ncc(-c3ccccc3)o2)cc1S(=O)(=O)Nc1c(C)cc(C)nc1C` [Compound 1575], the EC50 fell in the range of 20 to 100 µM and the Emax was in the range of 123 to 159%.

As to `COc1ccc(NC(=O)c2ncc(-c3ccccc3)o2)cc1S(=O)(=O)Nc1c(C)ccc2ncccc12` [Compound 1605], the concentration giving a half-maximal response (EC50) was under 10 µM and the Emax was in the range of 160 to 199%.

Regarding `COc1ccc(NC(=O)c2ncc(-c3ccccc3)o2)cc1S(=O)(=O)Nc1c(C)ccnc1OC` [Compound 1666], the EC50 fell in the range of 10 to 20 µM and the Emax was 123 to 159%.

Take `COc1ccc(NC(=O)c2ncc(-c3ccccc3)o2)cc1S(=O)(=O)Nc1sc2c(c1C#N)CCCC2` [Compound 1671]: the concentration for a half-maximal effect (EC50) fell in the range of 10 to 20 µM and the Emax was 160 to 199%.

Consider `COc1ccc(NC(=O)c2ncc(-c3ccccc3)o2)cc1S(=O)(=O)Nc1sc(C)c(C)c1C#N` [Compound 1672], for which the EC50 lay within 10 to 20 µM and the Emax lay within 160 to 199%.

For `COc1ccc(NC(=O)c2ncc(-c3ccccc3)o2)cc1S(=O)(=O)Nc1ccc(C)nc1F` [Compound 1684], the EC50 lay within 20 to 100 µM and the Emax lay within 123 to 159%.

Turning to `COc1ccc(NC(=O)c2ncc(-c3ccccc3)o2)cc1S(=O)(=O)Nc1c(C)csc1C` [Compound 1693], the EC50 is under 10 µM and the Emax was in the range of 160 to 199%.

`CCc1nccc(C)c1NS(=O)(=O)c1cc(NC(=O)c2ncc(-c3ccccc3)o2)ccc1OC` [Compound 1697]: the EC50 was in the range of 20 to 100 µM and the Emax lay within 123 to 159%.

In the case of `COc1ccc(NC(=O)c2ncc(-c3ccccc3)o2)cc1S(=O)(=O)Nc1cccc(C(F)(F)F)n1` [Compound 1805], the EC50 was in the range of 10 to 20 µM and the Emax lay in the range of 200 to 300%.

In the case of `COc1ccc(NC(=O)c2ncc(-c3ccccc3)o2)cc1S(=O)(=O)Nc1c(C(C)C)ccnc1C(C)C` [Compound 1809], the 50% effective concentration (EC50) was under 10 µM and the Emax lay in the range of 160 to 199%.

As for `COc1ccc(NC(=O)c2ncc(-c3ccccc3)o2)cc1S(=O)(=O)Nc1cc2ccccc2nn1` [Compound 1825], the EC50 lay in the range of 20 to 100 µM and the Emax lay in the range of 160 to 199%.

For `COc1ccc(NC(=O)c2cnc(-c3cccs3)[nH]2)cc1S(=O)(=O)Nc1ccc(Cl)cc1` [Compound 1938], the EC50 was under 10 µM and the Emax is 200 to 300%.

For `COc1ccc(NC(=O)c2csc3c2C2CCN3CC2)cc1S(=O)(=O)Nc1c(C)cccc1C` [Compound 1945], the concentration giving a half-maximal response (EC50) lay in the range of 10 to 20 µM and the Emax lay in the range of 160 to 199%.

Turning to `COc1ccc(NC(=O)c2cnc(-c3cccnc3OC)[nH]2)cc1S(=O)(=O)Nc1ccc(Cl)cc1` [Compound 1951], the half-maximal effective concentration (EC50) was under 10 µM and the Emax is 160 to 199%.

`COc1ccc(NC(=O)c2cocn2)cc1S(=O)(=O)Nc1ccc(Cl)cc1` [Compound 1961]: the EC50 is 20 to 100 µM and the maximum response (Emax) was 160 to 199%.

On to `COc1ccc(NC(=O)c2ccc(C)nc2OC)cc1S(=O)(=O)Nc1ccc(Cl)cc1` [Compound 1963], for which the 50% effective concentration (EC50) is 20 to 100 µM and the Emax was 160 to 199%.

Turning to `COc1ccc(NC(=O)c2cnc(-c3c(OC)cccc3OC)[nH]2)cc1S(=O)(=O)Nc1ccc(Cl)cc1` [Compound 1969], the EC50 fell in the range of 10 to 20 µM and the maximal response (Emax) was in the range of 200 to 300%.

Consider `COc1ccc(NC(=O)c2cnc(-c3ccccc3C)[nH]2)cc1S(=O)(=O)Nc1ccc(Cl)cc1` [Compound 1971], for which the EC50 is under 10 µM and the Emax fell in the range of 200 to 300%.

With `COc1ccc(NC(=O)c2csc(-c3ccccc3)n2)cc1S(=O)(=O)N(CC(O)CO)c1ccc(Cl)cc1` (stereo not drawn) [Compound 2404], the EC50 is under 10 µM and the Emax fell in the range of 123 to 159%.

In the case of `COc1ccc(NC(=O)c2csc(-c3cc(F)c(F)c(F)c3)n2)cc1S(=O)(=O)Nc1c(C)csc1C` [Compound 2406], the 50% effective concentration (EC50) is under 10 µM and the Emax lay within 123 to 159%.

For orientation: EC50 means the concentration needed to bring the measured effect to its halfway point. As usually defined, the Emax is the maximal effect, on the per cent scale that the assay sets.
